The source of these data is article PMC5218480 (PLoS ONE, 2017).

The assay relates to MV-4-11 cells. The assay is described as follows: Gene expression microarray analysis (Affymetrix PrimeView) and GSEA. It is filed as cell-based, human. Also noted: RFU PODN (11730768_x_at) / Fold change /veh PODN (11730768_x_at) / RFU LINC00158 (11744669_a_at) / Fold change /veh LINC00158 (11744669_a_at) / RFU DUSP10 (11751237_a_at) / Fold change /veh DUSP10 (11751237_a_at) / RFU ID3 (11757404_x_at) / Fold change /veh ID3 (11757404_x_at) / RFU PLEKHG5 (11737974_s_at) / Fold change /veh PLEKHG5 (11737974_s_at) / RFU LRRC4B (11730491_at) / Fold change /veh LRRC4B (11730491_at) / RFU GIMAP4 (11747438_a_at) / Fold change /veh GIMAP4 (11747438_a_at) / RFU KRT8 (11758183_x_at) / Fold change /veh KRT8 (11758183_x_at) / RFU CNN1 (11734310_a_at) / Fold change /veh CNN1 (11734310_a_at) / RFU VPS37D (11726825_at) / Fold change /veh VPS37D (11726825_at) / RFU C10orf10 (11716522_x_at) / Fold change /veh C10orf10 (11716522_x_at) / RFU KIR2DL2 /// KIR2DL4 /// KIR2DL5A /// KIR2DL5B /// KIR2DS1 /// KIR2DS2 /// KIR2DS3 /// KIR2DS4 /// KIR3DL3 /// KIR3DL3 /// KIR3DS1 (11738374_at) / Fold change /veh KIR2DL2 /// KIR2DL4 /// KIR2DL5A /// KIR2DL5B /// KIR2DS1 /// KIR2DS2 /// KIR2DS3 /// KIR2DS4 /// KIR3DL3 /// KIR3DL3 /// KIR3DS1 (11738374_at) / RFU C1QL1 (11718748_at) / Fold change /veh C1QL1 (11718748_at) / RFU TMPRSS4 (11747572_a_at) / Fold change /veh TMPRSS4 (11747572_a_at) / RFU HAMP (11756126_x_at) / Fold change /veh HAMP (11756126_x_at) / RFU RNFT2 (11725882_a_at) / Fold change /veh RNFT2 (11725882_a_at) / RFU NR4A2 (11747474_a_at) / Fold change /veh NR4A2 (11747474_a_at) / RFU ABCC12 (11746883_a_at) / Fold change /veh ABCC12 (11746883_a_at) / RFU TMEM136 (11760407_x_at) / Fold change /veh TMEM136 (11760407_x_at) / RFU CLDN22 /// WWC2 (11732394_at) / Fold change /veh CLDN22 /// WWC2 (11732394_at) / RFU HLA-DPB1 (11760878_x_at) / Fold change /veh HLA-DPB1 (11760878_x_at) / RFU SPINT1 (11716480_a_at) / Fold change /veh SPINT1 (11716480_a_at) / RFU GAP43 (11754022_s_at) / Fold change /veh GAP43 (11754022_s_at) / RFU A4GNT (11735810_at) / Fold change /veh A4GNT (11735810_at) / RFU PRB3 (11715151_x_at) / Fold change /veh PRB3 (11715151_x_at) / RFU TUBB4B (11761932_at) / Fold change /veh TUBB4B (11761932_at) / RFU CAPN14 (11732068_a_at) / Fold change /veh CAPN14 (11732068_a_at) / RFU TMCC2 (11721928_a_at) / Fold change /veh TMCC2 (11721928_a_at) / RFU IRGQ (11745062_a_at) / Fold change /veh IRGQ (11745062_a_at) / RFU FAM174B (11720279_a_at) / Fold change /veh FAM174B (11720279_a_at) / RFU TMPRSS4 (11748680_a_at) / Fold change /veh TMPRSS4 (11748680_a_at) / RFU FAM212B (11763350_a_at) / Fold change /veh FAM212B (11763350_a_at) / RFU PLEKHG5 (11743358_a_at) / Fold change /veh PLEKHG5 (11743358_a_at) / RFU ZSCAN30 (11745921_a_at) / Fold change /veh ZSCAN30 (11745921_a_at) / RFU CMKLR1 (11741424_a_at) / Fold change /veh CMKLR1 (11741424_a_at) / RFU LOC101060620 /// MAPK8IP1 (11723275_at) / Fold change /veh LOC101060620 /// MAPK8IP1 (11723275_at) / RFU SPTSSB (11747773_x_at) / Fold change /veh SPTSSB (11747773_x_at) / RFU PRSS12 (11739890_at) / Fold change /veh PRSS12 (11739890_at) / RFU BIN1 (11741810_x_at) / Fold change /veh BIN1 (11741810_x_at) / RFU WNT11 (11732464_a_at) / Fold change /veh WNT11 (11732464_a_at) / RFU C10orf10 (11716521_a_at) / Fold change /veh C10orf10 (11716521_a_at) / RFU C5orf56 (11738089_at) / Fold change /veh C5orf56 (11738089_at) / RFU CYB561 (11721691_x_at) / Fold change /veh CYB561 (11721691_x_at) / RFU ANKRD19P (11752326_a_at) / Fold change /veh ANKRD19P (11752326_a_at) / RFU OR2T12 /// OR2T33 /// OR2T8 (11738714_s_at) / Fold change /veh OR2T12 /// OR2T33 /// OR2T8 (11738714_s_at) / RFU VCAN (11748164_a_at) / Fold change /veh VCAN (11748164_a_at) / RFU JSRP1 (11732532_at) / Fold change /veh JSRP1 (11732532_at) / RFU KRTAP10-11 (11738290_x_at) / Fold change /veh KRTAP10-11 (11738290_x_at) / RFU MYO3A (11730013_a_at) / Fold change /veh MYO3A (11730013_a_at) / RFU EBF3 (11725865_a_at) / Fold change /veh EBF3 (11725865_a_at) / RFU CAMK2N1 (11719241_x_at) / Fold change /veh CAMK2N1 (11719241_x_at) / RFU C5orf56 (11738088_a_at) / Fold change /veh C5orf56 (11738088_a_at) / RFU OLFML3 (11715873_a_at) / Fold change /veh OLFML3 (11715873_a_at) / RFU LOC100653217 /// NTM (11731650_a_at) / Fold change /veh LOC100653217 /// NTM (11731650_a_at) / RFU MAPK11 (11762145_a_at) / Fold change /veh MAPK11 (11762145_a_at) / RFU FIZ1 (11724087_x_at) / Fold change /veh FIZ1 (11724087_x_at) / RFU OASL (11726364_x_at) / Fold change /veh OASL (11726364_x_at) / RFU SOX15 (11748057_x_at) / Fold change /veh SOX15 (11748057_x_at) / RFU CD79A (11719716_a_at) / Fold change /veh CD79A (11719716_a_at) / RFU HIST1H1D (11736915_at) / Fold change /veh HIST1H1D (11736915_at) / RFU CASKIN2 (11723855_a_at) / Fold change /veh CASKIN2 (11723855_a_at) / RFU LOC730098 (11760151_x_at) / Fold change /veh LOC730098 (11760151_x_at) / RFU OR4N2 (11742367_at) / Fold change /veh OR4N2 (11742367_at) / RFU PRRT2 (11749266_a_at) / Fold change /veh PRRT2 (11749266_a_at) / RFU SNX32 (11753110_a_at) / Fold change /veh SNX32 (11753110_a_at) / RFU CDHR5 (11726645_a_at) / Fold change /veh CDHR5 (11726645_a_at) / RFU RCAN1 (11760418_a_at) / Fold change /veh RCAN1 (11760418_a_at) / RFU FAM167A (11723789_a_at) / Fold change /veh FAM167A (11723789_a_at) / RFU FAM26E (11764081_at) / Fold change /veh FAM26E (11764081_at) / RFU ISYNA1 (11749810_s_at) / Fold change /veh ISYNA1 (11749810_s_at) / RFU ACY1 (11761880_at) / Fold change /veh ACY1 (11761880_at) / RFU 11764098_at / Fold change /veh 11764098_at / RFU SAMD14 (11745864_x_at) / Fold change /veh SAMD14 (11745864_x_at) / RFU NPB (11741838_a_at) / Fold change /veh NPB (11741838_a_at) / RFU TMPRSS6 (11731388_a_at) / Fold change /veh TMPRSS6 (11731388_a_at) / RFU KRTAP10-2 (11738614_at) / Fold change /veh KRTAP10-2 (11738614_at) / RFU ARHGAP8 /// PRR5-ARHGAP8 (11727945_x_at) / Fold change /veh ARHGAP8 /// PRR5-ARHGAP8 (11727945_x_at) / RFU KRTAP5-7 /// NADSYN1 (11734609_at) / Fold change /veh KRTAP5-7 /// NADSYN1 (11734609_at) / RFU RASL12 (11751679_a_at) / Fold change /veh RASL12 (11751679_a_at) / RFU CDKN2B (11736163_a_at) / Fold change /veh CDKN2B (11736163_a_at) / RFU PRF1 (11729649_at) / Fold change /veh PRF1 (11729649_at) / RFU, ZNF638 /// ZNF638-IT1 / Fold change vs veh, ZNF638 /// ZNF638-IT1 / RFU, PANK3 / Fold change vs veh, PANK3 / RFU, SH3YL1 / Fold change vs veh, SH3YL1 / RFU, ZEB2 / Fold change vs veh, ZEB2 / RFU, NRIP1 / Fold change vs veh, NRIP1 / RFU, PTTG1IP / Fold change vs veh, PTTG1IP / RFU, CAPN2 / Fold change vs veh, CAPN2 / RFU, MED14 / Fold change vs veh, MED14 / RFU, SNORA58 / Fold change vs veh, SNORA58 / RFU, C1orf63 / Fold change vs veh, C1orf63 / RFU, LRRFIP1 / Fold change vs veh, LRRFIP1 / RFU, NDUFAF7 / Fold change vs veh, NDUFAF7 / RFU, SLC12A2 / Fold change vs veh, SLC12A2 / RFU, IBTK / Fold change vs veh, IBTK / RFU, ESF1 / Fold change vs veh, ESF1 / Fold change vs veh, TMEM50B / RFU, TAOK1 / Fold change vs veh, TAOK1 / RFU, ACBD3 / Fold change vs veh, ACBD3 / RFU, TMA16 / Fold change vs veh, TMA16 / RFU, RWDD3 / Fold change vs veh, RWDD3 / RFU, BCAT1 / Fold change vs veh, BCAT1 / RFU, EDEM3 / Fold change vs veh, EDEM3 / RFU, TMEM33 / Fold change vs veh, TMEM33 / RFU, WDR75 / Fold change vs veh, WDR75 / RFU, AHCTF1 / Fold change vs veh, AHCTF1 / RFU, TFRC / Fold change vs veh, TFRC / RFU, ZDHHC17 / Fold change vs veh, ZDHHC17 / RFU, NOM1 / Fold change vs veh, NOM1 / RFU, ARL8B / Fold change vs veh, ARL8B / RFU, ZBTB11 / Fold change vs veh, ZBTB11 / RFU, TAMM41 / Fold change vs veh, TAMM41 / RFU, KIAA1704 /// LOC100996395 / Fold change vs veh, KIAA1704 /// LOC100996395 / RFU, ING1 / Fold change vs veh, ING1 / RFU, TRMT61B / Fold change vs veh, TRMT61B / RFU, FUBP3 / Fold change vs veh, FUBP3 / RFU, TP53 / Fold change vs veh, TP53 / RFU, TNKS2 / Fold change vs veh, TNKS2 / RFU, ZFP14 / Fold change vs veh, ZFP14 / RFU, ACTR2 / Fold change vs veh, ACTR2 / RFU, PPP3R1 / Fold change vs veh, PPP3R1 / RFU, PIK3R1 / Fold change vs veh, PIK3R1 / RFU, HNRNPA1 / Fold change vs veh, HNRNPA1 / RFU, RNF170 / Fold change vs veh, RNF170 / RFU, ZNF28 / Fold change vs veh, ZNF28 / RFU, RNGTT / Fold change vs veh, RNGTT / RFU, OGT / Fold change vs veh, OGT / RFU, BRD1 / Fold change vs veh, BRD1 / RFU, MARS / Fold change vs veh, MARS / RFU, ZNF655 / Fold change vs veh, ZNF655 / RFU, FAHD1 / Fold change vs veh, FAHD1 / RFU, BDP1 / Fold change vs veh, BDP1 / RFU, LRRCC1 / Fold change vs veh, LRRCC1 / RFU, ARID1A / Fold change vs veh, ARID1A / RFU, ZNF146 / Fold change vs veh, ZNF146 / RFU, ZNF330 / Fold change vs veh, ZNF330 / RFU, GPN3 / Fold change vs veh, GPN3 / RFU, C9orf123 / Fold change vs veh, C9orf123 / RFU, N4BP2L2 / Fold change vs veh, N4BP2L2 / RFU, ARFIP1 / Fold change vs veh, ARFIP1 / RFU, FAM179B / Fold change vs veh, FAM179B / RFU, BCL10 / Fold change vs veh, BCL10 / RFU, UHRF1BP1L / Fold change vs veh, UHRF1BP1L / RFU, BET1 / Fold change vs veh, BET1 / RFU, CNOT2 / Fold change vs veh, CNOT2 / RFU, ZNF268 / Fold change vs veh, ZNF268 / Fold change vs veh, ZNF507 / RFU, DGCR2 / Fold change vs veh, DGCR2 / RFU, WDSUB1 / Fold change vs veh, WDSUB1 / Fold change vs veh, HSP90B1 /// MIR3652 / RFU, ADSS / Fold change vs veh, ADSS / RFU, GK / Fold change vs veh, GK / RFU, ZNF148 / Fold change vs veh, ZNF148 / RFU, TAF9 / Fold change vs veh, TAF9 / RFU, SLC1A5 / Fold change vs veh, SLC1A5 / RFU, SLMO2 / Fold change vs veh, SLMO2 / RFU, ABCC4 / Fold change vs veh, ABCC4 / RFU, LOC101060439 /// RAP1B / Fold change vs veh, LOC101060439 /// RAP1B / RFU, RFX7 / Fold change vs veh, RFX7 / RFU, GTPBP10 / Fold change vs veh, GTPBP10 / RFU, CNEP1R1 / Fold change vs veh, CNEP1R1 / RFU, BIVM-ERCC5 /// ERCC5 / Fold change vs veh, BIVM-ERCC5 /// ERCC5 / RFU, ILF3 / Fold change vs veh, ILF3 / RFU 11762660_at / Fold change /veh 11762660_at / RFU VCAN (11757783_s_at) / Fold change /veh VCAN (11757783_s_at) / RFU DDX43 (11728927_at) / Fold change /veh DDX43 (11728927_at) / RFU KRT8 (11758188_x_at) / Fold change /veh KRT8 (11758188_x_at) / RFU NKD1 (11759106_at) / Fold change /veh NKD1 (11759106_at) / RFU SRD5A1 (11742802_a_at) / Fold change /veh SRD5A1 (11742802_a_at) / RFU TPSAB1 /// TPSB2 (11721975_s_at) / Fold change /veh TPSAB1 /// TPSB2 (11721975_s_at) / RFU GSTM3 (11746129_a_at) / Fold change /veh GSTM3 (11746129_a_at) / RFU IL23R (11737362_x_at) / Fold change /veh IL23R (11737362_x_at) / RFU TMEM51 (11727254_a_at) / Fold change /veh TMEM51 (11727254_a_at) / RFU PIWIL2 (11732686_x_at) / Fold change /veh PIWIL2 (11732686_x_at) / RFU ORM1 (11744905_x_at) / Fold change /veh ORM1 (11744905_x_at) / RFU CCDC152 (11743942_at) / Fold change /veh CCDC152 (11743942_at) / RFU ECM1 (11717891_a_at) / Fold change /veh ECM1 (11717891_a_at) / RFU IL23R (11748794_a_at) / Fold change /veh IL23R (11748794_a_at) / RFU TNFAIP8L3 (11732012_x_at) / Fold change /veh TNFAIP8L3 (11732012_x_at) / RFU MBOAT4 (11741988_at) / Fold change /veh MBOAT4 (11741988_at) / RFU 11764193_at / Fold change /veh 11764193_at / RFU TMEM53 (11763286_at) / Fold change /veh TMEM53 (11763286_at) / RFU MAGEB2 (11727129_at) / Fold change /veh MAGEB2 (11727129_at) / RFU TMEM200A (11744735_a_at) / Fold change /veh TMEM200A (11744735_a_at) / RFU CCDC152 (11751479_a_at) / Fold change /veh CCDC152 (11751479_a_at) / RFU FAM211A (11726209_a_at) / Fold change /veh FAM211A (11726209_a_at) / RFU RGS16 (11746705_a_at) / Fold change /veh RGS16 (11746705_a_at) / RFU VCAN (11755009_s_at) / Fold change /veh VCAN (11755009_s_at) / RFU RHOB (11743442_s_at) / Fold change /veh RHOB (11743442_s_at) / RFU RGS16 (11720943_a_at) / Fold change /veh RGS16 (11720943_a_at) / RFU RGS16 (11720944_at) / Fold change /veh RGS16 (11720944_at) / RFU, VPS4B / Fold change vs veh, VPS4B / RFU, CREB1 / Fold change vs veh, CREB1 / RFU, DNAJC13 / Fold change vs veh, DNAJC13 / RFU, GNAQ / Fold change vs veh, GNAQ / RFU, CDK5R1 / Fold change vs veh, CDK5R1 / RFU, ZRANB3 / Fold change vs veh, ZRANB3 / RFU, CUL4A / Fold change vs veh, CUL4A / RFU, CCNY / Fold change vs veh, CCNY / RFU, UFL1 / Fold change vs veh, UFL1 / RFU, COG3 / Fold change vs veh, COG3 / RFU, DIAPH2 / Fold change vs veh, DIAPH2 / RFU, SKA2 / Fold change vs veh, SKA2 / RFU, AFF3 / Fold change vs veh, AFF3 / RFU, LMF1 / Fold change vs veh, LMF1 / RFU, IPO11 / Fold change vs veh, IPO11 / RFU, DFFB / Fold change vs veh, DFFB / RFU, FOXP1 / Fold change vs veh, FOXP1 / RFU, CARD8 / Fold change vs veh, CARD8 / RFU, STRN3 / Fold change vs veh, STRN3 / RFU, ADK / Fold change vs veh, ADK / RFU, RASSF2 / Fold change vs veh, RASSF2 / RFU, WIPF1 / Fold change vs veh, WIPF1 / RFU, LARP1B / Fold change vs veh, LARP1B / RFU, RASA1 / Fold change vs veh, RASA1 / RFU, RB1 / Fold change vs veh, RB1 / RFU, PPFIA1 / Fold change vs veh, PPFIA1 / RFU, MAT2A / Fold change vs veh, MAT2A / RFU, CCT5 / Fold change vs veh, CCT5 / RFU, WDR92 / Fold change vs veh, WDR92 / RFU, CUX1 / Fold change vs veh, CUX1 / RFU, TTC7A / Fold change vs veh, TTC7A / RFU, TMEM135 / Fold change vs veh, TMEM135 / RFU, DEPTOR / Fold change vs veh, DEPTOR / RFU, CPM / Fold change vs veh, CPM / RFU, DNAJB6 / Fold change vs veh, DNAJB6 / RFU, CACNA2D3 / Fold change vs veh, CACNA2D3 / RFU, DTX4 / Fold change vs veh, DTX4 / RFU, TFCP2 / Fold change vs veh, TFCP2 / RFU, GMCL1 /// GMCL1P1 / Fold change vs veh, GMCL1 /// GMCL1P1 / RFU, AEBP2 / Fold change vs veh, AEBP2 / RFU, SNHG1 /// SNORD22 /// SNORD25 /// SNORD26 /// SNORD27 /// SNORD28 /// SNORD29 /// SNORD31 / Fold change vs veh, SNHG1 /// SNORD22 /// SNORD25 /// SNORD26 /// SNORD27 /// SNORD28 /// SNORD29 /// SNORD31 / Fold change (Aza/veh), C12orf56 (ProbeSet 11735607_a_at) / Fold change (ACY-1035/veh), C12orf56 (ProbeSet 11735607_a_at) / Fold change (Aza/veh), FGFR1OP (ProbeSet 11751329_s_at) / Fold change (ACY-1035/veh), FGFR1OP (ProbeSet 11751329_s_at) / Fold change (Aza/veh), VPS36 (ProbeSet 11739960_a_at) / Fold change (ACY-1035/veh), VPS36 (ProbeSet 11739960_a_at) / RFU SYPL1 (11715823_x_at) / Fold change /veh SYPL1 (11715823_x_at) / RFU IGFBP7 (11715501_s_at) / Fold change /veh IGFBP7 (11715501_s_at) / RFU REEP3 (11722064_at) / Fold change /veh REEP3 (11722064_at) / RFU IGLL1 (11728026_x_at) / Fold change /veh IGLL1 (11728026_x_at): dose or concentration left out as unconfirmed. To be noted: MV-4-11 cells, 48 hours.

On to `Nc1ncn([C@@H]2O[C@H](CO)[C@@H](O)[C@H]2O)c(=O)n1` [azacitidine], for which the “RFU REEP3 (11722064_at)” value was found to be 27.20 RFU.
